Reference: ChEMBL document CHEMBL1201862, “PubChem BioAssay data set” (2004)
Values joined by “and” are separate entries in the source; they are usually repeats but may differ in a detail not shown here. Equal values may be shown once.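 A five-concentration, 48-hour dose response in 96-well plates underlies each endpoint, interpolated linearly between surrounding concentrations. GI50: concentration for 50% inhibition of growth.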 Active and inactive are the calls of the source. No stated cut-off is given here; in the data, active = GI50 up to about 1.1 µM and inactive = higher.

How the values were obtained:
Test in all cases: NCI anticancer screen, dose series, 48 h
A498 = system: A498
A549 = system: A549
ACHN = system: ACHN
CCRF-CEM = system: CCRF-CEM
COLO 205 = system: COLO 205
DLD-1 = system: DLD-1
DMS-114 = system: DMS-114
DMS-273 = system: DMS-273
EKVX = system: EKVX
HCC 2998 = system: HCC 2998
HCT-116 = system: HCT-116
HCT-15 = system: HCT-15
HL-60 = system: HL-60
HT-29 = system: HT-29
K562 = system: K562
KM12 = system: KM12
LOX IMVI = system: LOX IMVI
LXFL 529 = system: LXFL 529
M19-MEL = system: M19-MEL
Malme-3M = system: Malme-3M
NCI-H226 = system: NCI-H226
NCI-H460 = system: NCI-H460
OVCAR-5 = system: OVCAR-5
OVCAR-8 = system: OVCAR-8
SK-MEL-28 = system: SK-MEL-28
SK-MEL-2 = system: SK-MEL-2
SK-MEL-5 = system: SK-MEL-5
SN12C = system: SN12C
SNB-75 = system: SNB-75
SNB-78 = system: SNB-78
SW-620 = system: SW-620
UACC-62 = system: UACC-62
786-0 = system: 786-0
BT-549 = system: BT-549
CAKI-1 = system: CAKI-1
DU-145 = system: DU-145
HOP-62 = system: HOP-62
HOP-92 = system: HOP-92
Hs-578T = system: Hs-578T
IGROV-1 = system: IGROV-1
KM-20L2 = system: KM-20L2
M14 = system: M14
MCF7 = system: MCF7
MDA-MB-231 = system: MDA-MB-231
MDA-MB-435 = system: MDA-MB-435
MDA-N = system: MDA-N
MOLT-4 = system: MOLT-4
NCI-H23 = system: NCI-H23
NCI-H522 = system: NCI-H522
NCI/ADR-RES = system: NCI/ADR-RES
OVCAR-3 = system: OVCAR-3
OVCAR-4 = system: OVCAR-4
PC-3 = system: PC-3
RPMI-8226 = system: RPMI-8226
RXF 393 = system: RXF 393
SF-268 = system: SF-268
SF-295 = system: SF-295
SF-539 = system: SF-539
SK-OV-3 = system: SK-OV-3
SNB-19 = system: SNB-19
SR = system: SR
T47D = system: T47D
TK-10 = system: TK-10
U-251 = system: U-251
UACC-257 = system: UACC-257
UO-31 = system: UO-31

Question: `CC(=O)OCC1OC(n2c(=S)n(-c3ccccc3)c(=O)c3cc(Br)cc(Br)c32)C(OC(C)=O)C(OC(C)=O)C1OC(C)=O` (stereo unspecified) was tested. Which GI50 (A498) did it give?
Answer: The GI50 was > 100 µM (inactive) and 61.7 µM (inactive).

Question: And the GI50 (A549)?
Answer: The GI50 was 90.8 µM (inactive) and 58.6 µM (inactive).

Question: What about the GI50 (ACHN) of the same molecule?
Answer: Its GI50 is 51.8 µM (inactive) and 87.3 µM (inactive).

Question: And the GI50 (CCRF-CEM)?
Answer: The GI50 was > 100 µM (inactive).

Question: What about the GI50 (COLO 205) of the same molecule?
Answer: Its GI50 is > 100 µM (inactive).

Question: What about the GI50 (DLD-1) of the same molecule?
Answer: The GI50 was > 100 µM (inactive).

Question: And the GI50 (DMS-114)?
Answer: Its GI50 is 35.2 µM (inactive) and 57.8 µM (inactive).

Question: And the GI50 (DMS-273)?
Answer: The GI50 was > 100 µM (inactive) and 64.9 µM (inactive).

Question: And the GI50 (EKVX)?
Answer: The GI50 was > 100 µM (inactive).

Question: And the GI50 (HCC 2998)?
Answer: Its GI50 is > 100 µM (inactive).

Question: And the GI50 (HCT-116)?
Answer: Its GI50 is 65.2 µM (inactive).

Question: What about the GI50 (HCT-15) of the same molecule?
Answer: The GI50 was 83.4 µM.

Question: What about the GI50 (HL-60) of the same molecule?
Answer: The GI50 was 86.7 µM (inactive).

Question: And the GI50 (HT-29)?
Answer: Its GI50 is > 100 µM (inactive).

Question: And the GI50 (K562)?
Answer: Its GI50 is 65.3 µM (inactive).

Question: And the GI50 (KM12)?
Answer: Its GI50 is 83 µM (inactive) and 78.5 µM (inactive).

Question: And the GI50 (LOX IMVI)?
Answer: The GI50 was 60 µM (inactive).

Question: What about the GI50 (LXFL 529) of the same molecule?
Answer: Its GI50 is 72.1 µM (inactive) and 45.2 µM (inactive).

Question: What about the GI50 (M19-MEL) of the same molecule?
Answer: Its GI50 is 65.6 µM (inactive).

Question: And the GI50 (Malme-3M)?
Answer: The GI50 was > 100 µM (inactive).

Question: What about the GI50 (NCI-H226) of the same molecule?
Answer: Its GI50 is 61.7 µM (inactive).

Question: What about the GI50 (NCI-H460) of the same molecule?
Answer: Its GI50 is > 100 µM (inactive) and 81.8 µM (inactive).

Question: And the GI50 (OVCAR-5)?
Answer: Its GI50 is > 100 µM (inactive).

Question: And the GI50 (OVCAR-8)?
Answer: Its GI50 is > 100 µM (inactive) and 92.9 µM (inactive).

Question: And the GI50 (SK-MEL-28)?
Answer: The GI50 was > 100 µM (inactive).

Question: What about the GI50 (SK-MEL-2) of the same molecule?
Answer: The GI50 was > 100 µM (inactive).

Question: What about the GI50 (SK-MEL-5) of the same molecule?
Answer: Its GI50 is 91.6 µM (inactive).

Question: What about the GI50 (SN12C) of the same molecule?
Answer: Its GI50 is > 100 µM (inactive) and 81.8 µM (inactive).

Question: And the GI50 (SNB-75)?
Answer: Its GI50 is 33.5 µM (inactive) and 22.6 µM (inactive).

Question: And the GI50 (SNB-78)?
Answer: Its GI50 is 99.3 µM (inactive) and 54.8 µM (inactive).

Question: And the GI50 (SW-620)?
Answer: Its GI50 is > 100 µM (inactive).

Question: What about the GI50 (UACC-62) of the same molecule?
Answer: Its GI50 is 59.2 µM (inactive) and 54.3 µM (inactive).

Question: Which results are given for `CS(=O)(=O)OCCN(CCOS(C)(=O)=O)c1ccc(/C=N/c2ccc3oc(=O)ccc3c2)cc1`?
Answer: GI50 (786-0): 0.321 µM (active); GI50 (A498): 2 µM (inactive); GI50 (A549): 3.47 µM (inactive); GI50 (ACHN): 492 nM (active); GI50 (BT-549): 10.5 µM (inactive); GI50 (CAKI-1): 0.622 µM (active); GI50 (CCRF-CEM): 0.871 µM (active); GI50 (COLO 205): 2.05 µM (inactive); GI50 (DMS-114): 714 nM (active); GI50 (DU-145): 0.968 µM (active); GI50 (EKVX): 8.2 µM (inactive); GI50 (HCC 2998): 1.61 µM (inactive); GI50 (HCT-116): 37.7 µM (inactive); GI50 (HCT-15): 7.21 µM; GI50 (HL-60): 1.71 µM (inactive); GI50 (HOP-62): 1.89 µM (inactive); GI50 (HOP-92): 12.3 µM (inactive); GI50 (HT-29): 5.66 µM (inactive); GI50 (Hs-578T): 28.1 µM (inactive); GI50 (IGROV-1): 12 µM (inactive); GI50 (K562): 24.6 µM (inactive); GI50 (KM-20L2): 2.64 µM (inactive); GI50 (KM12): 8.41 µM (inactive); GI50 (LOX IMVI): 7.23 µM (inactive); GI50 (LXFL 529): 13.1 µM (inactive); GI50 (M14): 2.82 µM (inactive); GI50 (M19-MEL): 13.2 µM (inactive); GI50 (MCF7): 3.59 µM (inactive); GI50 (MDA-MB-231): 32.9 µM (inactive); GI50 (MDA-MB-435): 11.1 µM (inactive); GI50 (MDA-N): 10.9 µM (inactive); GI50 (MOLT-4): 0.318 µM (active); GI50 (Malme-3M): 8.73 µM (inactive); GI50 (NCI-H226): 3.53 µM (inactive); GI50 (NCI-H23): 2.04 µM (inactive); GI50 (NCI-H460): 31.3 nM (active); GI50 (NCI-H522): 0.211 µM (active); GI50 (NCI/ADR-RES): 8.59 µM (inactive); GI50 (OVCAR-3): 3.58 µM (inactive); GI50 (OVCAR-4): 11.7 µM (inactive); GI50 (OVCAR-5): 3.24 µM (inactive); GI50 (OVCAR-8): 6.97 µM (inactive); GI50 (PC-3): 16.6 µM (inactive); GI50 (RPMI-8226): 6.53 µM (inactive); GI50 (RXF 393): 0.553 µM (active); GI50 (SF-268): 5.13 µM (inactive); GI50 (SF-295): 0.933 µM (active); GI50 (SF-539): 4.43 µM (inactive); GI50 (SK-MEL-28): 12.9 µM (inactive); GI50 (SK-MEL-2): 15.8 µM (inactive); GI50 (SK-MEL-5): 7.08 µM (inactive); GI50 (SK-OV-3): 1.11 µM (active); GI50 (SN12C): 6.78 µM (inactive); GI50 (SNB-19): 8.97 µM (inactive); GI50 (SNB-75): 2.43 µM (inactive); GI50 (SNB-78): 2.12 µM (inactive); GI50 (SR): 0.395 µM (active); GI50 (SW-620): 14.2 µM (inactive); GI50 (T47D): 5.6 µM (inactive); GI50 (TK-10): 2.45 µM (inactive); GI50 (U-251): 9.38 µM (inactive); GI50 (UACC-257): 6.82 µM (inactive); GI50 (UACC-62): 1.8 µM (inactive); GI50 (UO-31): 0.959 µM (active)
